Literature values, collected in US20070027110A1, “Double salts of (-)-hydroxycitric acid with an amine and a group II a metal and a process for preparing the same” (priority 2004, published 2007).

Settings: free acid form, forming lactone; liquid form unstable during storage

stability: unstable
Compound: O=C(O)CC(O)(C(=O)O)C(O)C(=O)O (single isomer, unassigned; (-)) [(−)-hydroxycitric acid]
